These results are taken from US12129312B2, “Peptide compound, application thereof and composition containing same” (priority 2017, dated 2024).

Like-named read-outs stand apart in the source and are kept apart here. Numbered stars: 1 amine (or outer) side, 2 acyl side, 3 side chain; on linkers, the order of the positions; unused ones are H or OH. Square brackets hold non-standard residues; d marks the D form. Peptide text beside a SMILES is read from it. * marks the point of attachment. Pro(4,4-F2) = O=C(O)[C@@H]1CC(F)(F)CN1; X4 = O=C([C@@H]1Cc2ccsc2CN1[*:1])[*:2]; X5 = O=C([C@H]1c2ccccc2CCN1[*:1])[*:2]; 1Nal = N[C@@H](Cc1cccc2ccccc12)C(=O)O; 2Nal = N[C@@H](Cc1ccc2ccccc2c1)C(=O)O; Tiq1c(1S) = O=C(O)[C@H]1NCCc2ccccc21; dNMeY = CN[C@H](Cc1ccc(O)cc1)C(=O)O; Hydrocinnamoyl = O=C(CCc1ccccc1)*; Tic = O=C(O)[C@@H]1Cc2ccccc2CN1; dTic = O=C(O)[C@H]1Cc2ccccc2CN1; Gly(N-CH2CH2OH) = O=C(O)CNCCO; NMeL = CN[C@@H](CC(C)C)C(=O)O; NMeS = CN[C@@H](CO)C(=O)O; hSer = N[C@@H](CCO)C(=O)O; Thz = O=C(O)[C@@H]1CSCN1

In the experiment the target is T1, human Chemokine like receptor 1 (Homo sapiens, UniProt Q99788).
T1 construct: host or cells: U2OS (Tango CMKLR1-bla U2OS)
T1 sequence (Q99788 1-373): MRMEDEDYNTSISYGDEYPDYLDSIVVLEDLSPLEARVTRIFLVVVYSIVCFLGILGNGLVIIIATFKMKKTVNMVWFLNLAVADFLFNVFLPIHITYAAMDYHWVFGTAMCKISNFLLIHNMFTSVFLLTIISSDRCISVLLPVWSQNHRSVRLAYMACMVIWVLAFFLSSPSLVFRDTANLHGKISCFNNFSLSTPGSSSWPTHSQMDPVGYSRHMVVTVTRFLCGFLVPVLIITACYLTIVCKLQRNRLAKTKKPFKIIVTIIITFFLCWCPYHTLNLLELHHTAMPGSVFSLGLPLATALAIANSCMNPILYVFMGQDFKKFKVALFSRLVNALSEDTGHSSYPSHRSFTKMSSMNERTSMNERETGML
Put plainly: Activation of Tango CMKLR1-bla U2OS cells (beta-lactamase FRET reporter). Format: cell-based. A digest of the protocol: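 Agonist mode in Tango CMKLR1-bla U2OS cells, 10000 cells/well seeded overnight, then 10-point 3-fold compound dilutions from 10 mM DMSO stock applied for 4 h at 37 °C, 5% CO2. Beta-lactamase reporter read with CCF4-AM FRET substrate; peptide (D-Tyr)-Phe-Leu-Pro-(D-Ser)-Gln-Phe-(D-Ala)-Tic-Ser served as positive control.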

Setting [1] is: determination by the method of Effect Embodiment 1, read-out: EC50.

In the case of `CN[C@H](Cc1ccc(O)cc1)C(=O)N[C@@H](Cc1ccccc1)C(=O)N(C)[C@@H](CC(C)C)C(=O)N1CSC[C@H]1C(=O)N[C@H](CO)C(=O)N[C@@H](CCC(N)=O)C(=O)N[C@@H](Cc1ccc2ccccc2c1)C(=O)N[C@H](C)C(=O)N1Cc2ccccc2C[C@H]1C(=O)N[C@@H](CO)C(=O)O` [YW-148, (D-NMe-Tyr)-Phe-(NMe-Leu)-Thz-(D-Ser)-Gln-2Nal-(D-Ala)-Tic-Ser-OH] (H-[dNMeY]F[NMeL][Thz][dS]Q[2Nal][dA][Tic]S-OH), under setting [1], the EC50 (commonly the concentration that produces a half-maximal response) is 0.5 nM.
Take `CC(C)C[C@H](NC(=O)[C@H](Cc1ccccc1)NC(=O)[C@H](N)Cc1ccc(O)cc1)C(=O)N1CCC[C@H]1C(=O)N[C@H](CO)C(=O)N[C@@H](CCC(N)=O)C(=O)N[C@@H](Cc1ccccc1)C(=O)N[C@H](C)C(=O)N1Cc2ccccc2C[C@@H]1C(=O)N[C@@H](CO)C(=O)O` [YW-149, (D-Tyr)-Phe-Leu-Pro-(D-Ser)-Gln-Phe-(D-Ala)-D-Tic-Ser-OH] (H-[dY]FLP[dS]QF[dA][dTic]S-OH): the EC50 under setting [1] is 21 nM.
For the compound `CC(C)C[C@H](NC(=O)[C@H](Cc1ccccc1)NC(=O)[C@H](N)Cc1ccc(O)cc1)C(=O)N1CCC[C@H]1C(=O)N[C@H](CO)C(=O)N[C@@H](CCC(N)=O)C(=O)N[C@@H](Cc1ccccc1)C(=O)N[C@H](C)C(=O)N1CCc2ccccc2[C@H]1C(=O)N[C@@H](CO)C(=O)O` [YW-150, (D-Tyr)-Phe-Leu-Pro-(D-Ser)-Gln-Phe-(D-Ala)-Ti1c-Ser-OH] (H-[dY]FLP[dS]QF[dA][Tiq1c(1S)]S-OH), under setting [1], the 50% effective concentration (EC50) turned out to be 62 nM.
Same read-out and setting: then `CC(C)C[C@H](NC(=O)[C@H](Cc1ccccc1)NC(=O)[C@H](N)Cc1ccc(O)cc1)C(=O)N1CCC[C@H]1C(=O)N[C@H](CO)C(=O)N[C@@H](CCC(N)=O)C(=O)N[C@@H](Cc1ccccc1)C(=O)N[C@H](C)C(=O)N1CCc2ccccc2[C@@H]1C(=O)N[C@@H](CO)C(=O)O` [YW-151, (D-Tyr)-Phe-Leu-Pro-(D-Ser)-Gln-Phe-(D-Ala)-D-Ti1c-Ser-OH] (H-[dY]FLP[dS]QF[dA][X5]S-OH), with 27 nM.
As for `CC(C)C[C@@H](C(=O)N1CCC[C@H]1C(=O)N[C@H](CO)C(=O)N[C@@H](CCC(N)=O)C(=O)N[C@@H](Cc1ccccc1)C(=O)N[C@H](C)C(=O)N1CCc2ccccc2[C@@H]1C(=O)N[C@@H](CO)C(=O)O)N(C)C(=O)[C@H](Cc1ccccc1)NC(=O)[C@H](N)Cc1ccc(O)cc1` [YW-153, (D-Tyr)-Phe-(NMe-Leu)-Pro-(D-Ser)-Gln-Phe-(D-Ala)-D-Ti1c-Ser-OH] (H-[dY]F[NMeL]P[dS]QF[dA][X5]S-OH), under setting [1], the EC50 is 8.5 nM.
Consider `CN[C@H](Cc1ccc(O)cc1)C(=O)N[C@@H](Cc1ccccc1)C(=O)N[C@@H](CC(C)C)C(=O)N1CCC[C@H]1C(=O)N[C@H](CO)C(=O)N[C@@H](CCC(N)=O)C(=O)N[C@@H](Cc1ccccc1)C(=O)N[C@H](C)C(=O)N1CCc2ccccc2[C@@H]1C(=O)N[C@@H](CO)C(=O)O` [YW-154, (D-NMe-Tyr)-Phe-Leu-Pro-(D-Ser)-Gln-Phe-(D-Ala)-D-Ti1c-Ser-OH] (H-[dNMeY]FLP[dS]QF[dA][X5]S-OH), for which the EC50 under setting [1] was found to be 34 nM.
With `CC(C)C[C@H](NC(=O)[C@H](Cc1ccccc1)NC(=O)[C@H](N)Cc1ccc(O)cc1)C(=O)N1CCC[C@H]1C(=O)N[C@H](CO)C(=O)N[C@@H](CCC(N)=O)C(=O)N[C@@H](Cc1ccccc1)C(=O)N[C@H](C)C(=O)N1Cc2sccc2C[C@H]1C(=O)N[C@@H](CO)C(=O)O` [YW-158, (D-Tyr)-Phe-Leu-Pro-(D-Ser)-Gln-Phe-(D-Ala)-TP5C-Ser-OH] (H-[dY]FLP[dS]QF[dA][X4]S-OH; N-terminus assumed), the EC50 under setting [1] is 65 nM.
The same measure, in the same setting: then `CC(C)C[C@@H](C(=O)N1CCC[C@H]1C(=O)N[C@H](CO)C(=O)N[C@@H](CCC(N)=O)C(=O)N[C@@H](Cc1ccccc1)C(=O)N[C@H](C)C(=O)N1Cc2ccccc2C[C@H]1C(=O)N[C@@H](CO)C(N)=O)N(C)C(=O)[C@H](Cc1ccccc1)NC(=O)[C@@H](Cc1ccc(O)cc1)NC(=O)CCc1ccccc1` [YW-161, 3-phenylpropanoyl-(D-Tyr)-Phe-(NMe-Leu)-Pro-(D-Ser)-Gln-Phe-(D-Ala)-Tic-Ser-NH2] (Hydrocinnamoyl-[dY]F[NMeL]P[dS]QF[dA][Tic]S-NH2), with 3 nM.
The same measure, in the same setting: for `CN[C@H](Cc1ccc(O)cc1)C(=O)N[C@@H](Cc1ccccc1)C(=O)N(C)[C@@H](CC(C)C)C(=O)N1CCC[C@H]1C(=O)N[C@H](CO)C(=O)N[C@@H](CCC(N)=O)C(=O)N[C@@H](Cc1cccc2ccccc12)C(=O)N[C@H](C)C(=O)N1Cc2ccccc2C[C@H]1C(=O)N(C)[C@@H](CO)C(=O)O` [YW-162, (D-NMe-Tyr)-Phe-(NMe-Leu)-Pro-(D-Ser)-Gln-1Nal-(D-Ala)-Tic-NMeSer-OH] (H-[dNMeY]F[NMeL]P[dS]Q[1Nal][dA][Tic][NMeS]-OH) the value was 2.6 nM; for `CN[C@H](Cc1ccc(O)cc1)C(=O)N[C@@H](Cc1ccccc1)C(=O)N(C)[C@@H](CC(C)C)C(=O)N1CCC[C@H]1C(=O)N[C@H](CO)C(=O)N[C@@H](CCC(N)=O)C(=O)N[C@@H](Cc1ccccc1)C(=O)N[C@H](C)C(=O)N1Cc2ccccc2C[C@H]1C(=O)N[C@@H](CO)C(=O)O` [YW-163, (D-NMe-Tyr)-Phe-(NMe-Leu)-Pro-(D-Ser)-Gln-Phe-(D-Ala)-Tic-Ser-OH] (H-[dNMeY]F[NMeL]P[dS]QF[dA][Tic]S-OH), 2.2 nM.
With `CC(C)C[C@@H](C(=O)N1CCC[C@H]1C(=O)N[C@H](CO)C(=O)N[C@@H](CCC(N)=O)C(=O)N[C@@H](Cc1ccc2ccccc2c1)C(=O)N[C@H](C)C(=O)N1Cc2ccccc2C[C@H]1C(=O)N[C@@H](CO)C(=O)O)N(C)C(=O)[C@H](Cc1ccccc1)NC(=O)[C@H](N)Cc1ccc(O)cc1` [YW-164, (D-Tyr)-Phe-(NMe-Leu)-Pro-(D-Ser)-Gln-2Nal-(D-Ala)-Tic-Ser-OH] (H-[dY]F[NMeL]P[dS]Q[2Nal][dA][Tic]S-OH), the EC50 is 1.1 nM.
On to `CC(C)C[C@@H](C(=O)N1CCC[C@H]1C(=O)N[C@H](CO)C(=O)N[C@@H](CCC(N)=O)C(=O)N[C@@H](Cc1cccc2ccccc12)C(=O)N[C@H](C)C(=O)N1Cc2ccccc2C[C@H]1C(=O)N[C@@H](CO)C(=O)O)N(C)C(=O)[C@H](Cc1ccccc1)NC(=O)[C@H](N)Cc1ccc(O)cc1` [YW-165, (D-Tyr)-Phe-(NMe-Leu)-Pro-(D-Ser)-Gln-1Nal-(D-Ala)-Tic-Ser-OH] (H-[dY]F[NMeL]P[dS]Q[1Nal][dA][Tic]S-OH), for which the EC50 was found to be 1.5 nM.
As for `CC(C)C[C@@H](C(=O)N1CCC[C@H]1C(=O)N[C@H](CO)C(=O)N[C@@H](CCC(N)=O)C(=O)N[C@@H](Cc1ccccc1)C(=O)N[C@H](C)C(=O)N1Cc2ccccc2C[C@H]1C(=O)N(C)[C@@H](CO)C(=O)O)N(C)C(=O)[C@H](Cc1ccccc1)NC(=O)[C@H](N)Cc1ccc(O)cc1` [YW-166, (D-Tyr)-Phe-(NMe-Leu)-Pro-(D-Ser)-Gln-Phe-(D-Ala)-Tic-(NMe-Ser)-OH] (H-[dY]F[NMeL]P[dS]QF[dA][Tic][NMeS]-OH), under setting [1], the concentration for a half-maximal effect (EC50) is 5 nM.
For `CN[C@H](Cc1ccc(O)cc1)C(=O)N[C@@H](Cc1ccccc1)C(=O)N(C)[C@@H](CC(C)C)C(=O)N1CCC[C@H]1C(=O)N[C@H](CO)C(=O)N[C@@H](CCC(N)=O)C(=O)N[C@@H](Cc1ccc2ccccc2c1)C(=O)N[C@H](C)C(=O)N1Cc2ccccc2C[C@H]1C(=O)N[C@@H](CO)C(=O)O` [YW-167, (D-NMe-Tyr)-Phe-(NMe-Leu)-Pro-(D-Ser)-Gln-2Nal-(D-Ala)-Tic-Ser-OH] (H-[dNMeY]F[NMeL]P[dS]Q[2Nal][dA][Tic]S-OH), the EC50 under setting [1] stood at 0.8 nM.
For `CN[C@H](Cc1ccc(O)cc1)C(=O)N[C@@H](Cc1ccccc1)C(=O)N(C)[C@@H](CC(C)C)C(=O)N1CCC[C@H]1C(=O)N[C@H](CO)C(=O)N[C@@H](CCC(N)=O)C(=O)N[C@@H](Cc1cccc2ccccc12)C(=O)N[C@H](C)C(=O)N1Cc2ccccc2C[C@H]1C(=O)N[C@@H](CO)C(=O)O` [YW-168, (D-NMe-Tyr)-Phe-(NMe-Leu)-Pro-(D-Ser)-Gln-1Nal-(D-Ala)-Tic-Ser-OH] (H-[dNMeY]F[NMeL]P[dS]Q[1Nal][dA][Tic]S-OH), the EC50 under setting [1] came to 1.2 nM.
Consider `CC(C)C[C@@H](C(=O)N1CCC[C@H]1C(=O)N[C@H](CO)C(=O)N[C@@H](CCC(N)=O)C(=O)N[C@@H](Cc1ccccc1)C(=O)N[C@H](C)C(=O)N1Cc2ccccc2C[C@H]1C(=O)N[C@@H](CCO)C(=O)O)N(C)C(=O)[C@H](Cc1ccccc1)NC(=O)[C@H](N)Cc1ccc(O)cc1` [YW-171, (D-Tyr)-Phe-(NMe-Leu)-Pro-(D-Ser)-Gln-Phe-(D-Ala)-Tic-HoSer-OH] (H-[dY]F[NMeL]P[dS]QF[dA][Tic][hSer]-OH), for which the EC50 under setting [1] is 29 nM.
For the compound `CC(C)C[C@@H](C(=O)N1CCC[C@H]1C(=O)N[C@H](CO)C(=O)N[C@@H](CCC(N)=O)C(=O)N[C@@H](Cc1ccccc1)C(=O)N[C@H](C)C(=O)N1Cc2ccccc2C[C@H]1C(=O)N(CCO)CC(=O)O)N(C)C(=O)[C@H](Cc1ccccc1)NC(=O)[C@H](N)Cc1ccc(O)cc1` [YW-172, (D-Tyr)-Phe-(NMe-Leu)-Pro-(D-Ser)-Gln-Phe-(D-Ala)-Tic-NHoSer-OH] (H-[dY]F[NMeL]P[dS]QF[dA][Tic][Gly(N-CH2CH2OH)]-OH), the EC50 under setting [1] amounted to 5.8 nM.
For the compound `CC(C)C[C@@H](C(=O)N1CC(F)(F)C[C@H]1C(=O)N[C@H](CO)C(=O)N[C@@H](CCC(N)=O)C(=O)N[C@@H](Cc1ccccc1)C(=O)N[C@H](C)C(=O)N1Cc2ccccc2C[C@H]1C(=O)N[C@@H](CO)C(=O)O)N(C)C(=O)[C@H](Cc1ccccc1)NC(=O)[C@H](N)Cc1ccc(O)cc1` [YW-174, (D-Tyr)-Phe-(NMe-Leu)-Pro(diF)-(D-Ser)-Gln-Phe-(D-Ala)-Tic-Ser-OH] (H-[dY]F[NMeL][Pro(4,4-F2)][dS]QF[dA][Tic]S-OH), under setting [1], the EC50 is 1.2 nM.
